The record followed here is patent US12447136B2, “Use of (5R,7R,10R)-12,15-dioxo-α-selinene in the preparation of drugs” (KUNMING INSTITUTE OF BOTANY, CHINESE ACADEMY OF SCIENCES, priority 2020, dated 2025).

The test system of this data set is MPP^+-induced PC12 cell injury. The data set is described as follows: Protective effect on MPP+-induced PC12 cell injury (MTS cell viability). On the procedure:
1. PC12 poorly-differentiated cells were cultured in a medium containing Dulbecco's modified Eagle's medium (DMEM) high glucose+10% fetal bovine serum (FBS)+100 U/mL penicillin-streptomycin, in an incubator at 37° C. and 5% CO2.
2. When growing to 80% to 90%, the PC12 poorly-differentiated cells were subjected to trypsin digestion to obtain a cell suspension.
3. The cell suspension was aspirated into a 15 mL centrifuge tube, followed by centrifugation at 800 rpm for 5 min.
4. After the centrifugation, the centrifuge tube was sterilized with alcohol and placed into an ultra-clean bench, and a supernatant was poured into a waste liquid tank.
5. 5 mL of a new complete medium was added, followed by blowing the medium ten times by a pipette to disperse the cells as much as possible, wherein the blowing should not be performed by too large of a force.
6. 0.02 mL of the cell suspension was taken and added to a cell counting plate for counting.
7. The cell suspension was adjusted to have a cell concentration of 1×10^5 cells/mL, then added to a 96-well plate by 0.1 mL per well, and incubated in a cell incubator.
8. After 23 h, the original medium was aspirated, and a new medium (the formula of which was the same as that in the above step 1) was added; the compound to be tested was added; and 1 h later, MPP^+ was added (a final concentration of the MPP^+ in the system was 750 μM).
9. Experimental design: each group was designed and performed for 3 repetitions:
A blank group included only medium.
A model group (MPP^+) included medium and MPP^+ which was added with a final concentration of 750 μM.
A positive control group (vitamin E) included medium, vitamin E which was added with a final concentration of 0.2 μM, and MPP^+ which was subsequently added with a final concentration of 750 μM.
10. 24 h after adding the MPP^+, MTS was added; after 2 h, values were read for detection.

In the case of `C=C(C=O)[C@@H]1CC[C@@]2(C)CCC=C(C=O)[C@@H]2C1` [PFC-37, (5R,7R,10R)-12,15-dioxo-α-selinene], under “at concentrations of 1 μM and 2 μM (P<0.001)”, the “protective activity against MPP^+-induced PC12 cell injury” value was “significant protective activity”. Moreover, the “protective effect on MPP^+-induced PC12 cell injury” value (screening in the MPP^+-induced PC12 cell injury model, no concentration stated) is “significant protective effect”.

For the compound vitamin E [reference compound], for the setting “0.2 μM compound or VE + 750 μM MPP^+, PC12 cells, MTS 24 h after MPP^+”, the “Cell viability (%)” value was found to be 75.70 ± 0.64 %.
